Data from patent US12479843B2, “Spiro ring-containing quinazoline compounds” (WIGEN BIOMEDICINE TECHNOLOGY (SHANGHAI) CO., LTD., priority 2019, dated 2025).

What was measured:
[1] = test system: pERK level in H358 cells; test: pERK and ERK protein content assay in H358 cells (ELISA); assay type: cell-based; details: Homo sapiens, NCI-H358, compound 1 μM, 24 h, pERK/ERK ratio compared with DMSO group, read-out: Inhibition rate (%) of pERK level
Method: H358 cells were seeded in a 24-well plate. After one day of growth, a test compound (at a concentration of 1 μM) was added. After 24 h of action of the compound, the cells were lysed, and the cell lysate was transferred to a 96-well ELISA plate. The levels of pERK and ERK in the lysate were measured using an ELISA kit (abcam 176660). The ratio of pERK to ERK was calculated and compared with that of the DMSO group, and the percentage of inhibition of pERK activity by the compound was calculated.

[2] = test system: H358 cells; test: Antiproliferative activity against H358 cells (Cell Titer Glow, ultra-low attachment plate); assay type: cell-based; details: Homo sapiens, NCI-H358, 72 h, 96-well ultra-low attachment plate, three days after addition of compound, Cell Titer Glow
Method: 2500 H358 cells were seeded in a 96-well ultra-low attachment plate (corning, 7007). After one day of growth, a serially diluted compound (a maximum concentration of 5 μM, 5-fold dilution, a total of five doses) was added. Three days after the addition of the compound, Cell Titer Glow (Promega, G9681) was added to evaluate pellet growth, and the IC50 value was calculated.

Compound | IC50 [2] | inhibition at 1 µM [1]
C=C(F)C(=O)N1CC2(CCN(c3nc(N4CC5(CCN(CCC#N)CC5)C4)nc4c(OCC(F)(F)F)c(-c5c(C)ccc6[nH]ncc56)c(C5CC5)cc34)CC2)C1 [Compound 88] | 300 to 1000 nM | 50 to 90%
C=CC(=O)N1CC2(CCN(c3nc(N4CC5(CCN(C6COC6)CC5)C4)nc4c(OCC(F)(F)F)c(-c5c(C)ccc6[nH]ncc56)c(C5CC5)cc34)CC2)C1 [Compound 89] | < 300 nM | > 90%
C=C(F)C(=O)N1CC2(CCN(c3nc(N4CC5(CCN(C6COC6)CC5)C4)nc4c(OCC(F)(F)F)c(-c5c(C)ccc6[nH]ncc56)c(C5CC5)cc34)CC2)C1 [Compound 90] | < 300 nM | > 90%
C=C(F)C(=O)N1CC2(CCN(c3nc(N4CC5(CCN(CCOCC)CC5)C4)nc4c(OCC(F)(F)F)c(-c5c(C)ccc6[nH]ncc56)c(C5CC5)cc34)CC2)C1 [Compound 94] | < 300 nM | > 90%
C=C(F)C(=O)N1CC2(CCN(c3nc(N4CC5(CCN(CCCOC)CC5)C4)nc4c(OCC(F)(F)F)c(-c5c(C)ccc6[nH]ncc56)c(C5CC5)cc34)CC2)C1 [Compound 96] | < 300 nM | > 90%
C=C(F)C(=O)N1CC2(CCN(c3nc(N4CCC5(CN(C)C5)C4)nc4c(OCC(F)(F)F)c(-c5c(C)ccc6[nH]ncc56)c(C5CC5)cc34)CC2)C1 [Compound 98] | 300 to 1000 nM | 50 to 90%
C=C(F)C(=O)N1CC2(CCN(c3nc(N4CCC5(CN(CCOC)C5)C4)nc4c(OCC(F)(F)F)c(-c5c(C)ccc6[nH]ncc56)c(C5CC5)cc34)CC2)C1 [Compound 100] | < 300 nM | > 90%
C=C(F)C(=O)N1CC2(CCN(c3nc(N4CCC5(CCN(CCOC)CC5)C4)nc4c(OCC(F)(F)F)c(-c5c(C)ccc6[nH]ncc56)c(C5CC5)cc34)CC2)C1 [Compound 102] | < 300 nM | > 90%

Further lines, with some results ahead:

IC50 [2] | Compound | inhibition at 1 µM [1]
< 300 nM | C=CC(=O)N1CC2(CCN(c3nc(N4CC5(CCN(CCC#N)CC5)C4)nc4c(OCC(F)(F)F)c(-c5c(C)ccc6[nH]ncc56)c(C5CC5)cc34)CC2)C1 [Compound 87] | > 90%
< 300 nM | C=CC(=O)N1CC2(CCN(c3nc(N4CC5(CCN(CCOC)CC5)C4)nc4c(OCC(F)(F)F)c(-c5c(C)ccc6[nH]ncc56)c(C5CC5)cc34)CC2)C1 [Compound 91] | > 90%
< 300 nM | C=C(F)C(=O)N1CC2(CCN(c3nc(N4CC5(CCN(CCOC)CC5)C4)nc4c(OCC(F)(F)F)c(-c5c(C)ccc6[nH]ncc56)c(C5CC5)cc34)CC2)C1 [Compound 92] | > 90%
< 300 nM | C=CC(=O)N1CC2(CCN(c3nc(N4CC5(CCN(CCOCC)CC5)C4)nc4c(OCC(F)(F)F)c(-c5c(C)ccc6[nH]ncc56)c(C5CC5)cc34)CC2)C1 [Compound 93] | > 90%
< 300 nM | C=CC(=O)N1CC2(CCN(c3nc(N4CC5(CCN(CCCOC)CC5)C4)nc4c(OCC(F)(F)F)c(-c5c(C)ccc6[nH]ncc56)c(C5CC5)cc34)CC2)C1 [Compound 95] | > 90%
300 to 1000 nM | C=CC(=O)N1CC2(CCN(c3nc(N4CCC5(CN(C)C5)C4)nc4c(OCC(F)(F)F)c(-c5c(C)ccc6[nH]ncc56)c(C5CC5)cc34)CC2)C1 [Compound 97] | 50 to 90%
< 300 nM | C=CC(=O)N1CC2(CCN(c3nc(N4CCC5(CN(CCOC)C5)C4)nc4c(OCC(F)(F)F)c(-c5c(C)ccc6[nH]ncc56)c(C5CC5)cc34)CC2)C1 [Compound 99] | > 90%
< 300 nM | C=CC(=O)N1CC2(CCN(c3nc(N4CCC5(CCN(CCOC)CC5)C4)nc4c(OCC(F)(F)F)c(-c5c(C)ccc6[nH]ncc56)c(C5CC5)cc34)CC2)C1 [Compound 101] | > 90%
< 300 nM | C=CC(=O)N1CC2(CCN(c3nc(N4CCC5(CC4)CN(CCOC)C5)nc4c(OCC(F)(F)F)c(-c5c(C)ccc6[nH]ncc56)c(C5CC5)cc34)CC2)C1 [Compound 103] | > 90%
